Experimental data from US20250387400A1, “TYK2 INHIBITORS” (BIOGEN MA INC., priority 2022, published 2025).

How the values were obtained:
Assay type in all cases: biochemical
[1] = target: T1, catalytic kinase (JH1) domain of human JAK2 (Homo sapiens, UniProt O60674); experiment: ADP-Glo kinase assay, JAK2 kinase domain
T1 construct: Catalytic activities of recombinant JAK2, JAK3 and TYK2 kinase domain

[2] = target: T2, catalytic kinase (JH1) domain of human JAK1 (Homo sapiens, UniProt P23458); experiment: ADP-Glo kinase assay, JAK1 kinase domain
T2 construct: 4 nM of recombinant JAK1 kinase domain is used to phosphorylate
T2 sequence (P23458 875-1153 limits assumed): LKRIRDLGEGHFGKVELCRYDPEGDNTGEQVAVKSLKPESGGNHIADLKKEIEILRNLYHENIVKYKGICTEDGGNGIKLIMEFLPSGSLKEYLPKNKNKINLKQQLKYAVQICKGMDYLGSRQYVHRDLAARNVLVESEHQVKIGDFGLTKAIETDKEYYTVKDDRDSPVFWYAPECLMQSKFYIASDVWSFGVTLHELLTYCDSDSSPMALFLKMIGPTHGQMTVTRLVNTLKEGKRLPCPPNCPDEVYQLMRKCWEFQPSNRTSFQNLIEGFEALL

[3] = target: T3, catalytic kinase (JH1) domain of human TYK2 (Homo sapiens, UniProt P29597); experiment: ADP-Glo kinase assay, TYK2 kinase domain
T3 construct: recombinantly generated catalytic kinase (also known as JH1) domain of human JAK1, JAK2, JAK3 and TYK2
T3 sequence (P29597 897-1176 limits assumed): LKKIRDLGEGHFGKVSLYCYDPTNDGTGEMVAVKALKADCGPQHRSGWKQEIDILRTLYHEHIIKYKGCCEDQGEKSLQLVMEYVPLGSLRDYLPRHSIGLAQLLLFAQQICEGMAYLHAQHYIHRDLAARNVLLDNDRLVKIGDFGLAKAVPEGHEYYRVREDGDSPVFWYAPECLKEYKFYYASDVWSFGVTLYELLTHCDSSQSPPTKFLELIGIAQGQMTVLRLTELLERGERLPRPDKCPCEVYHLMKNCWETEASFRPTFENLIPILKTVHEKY

[4] = target: T4, catalytic kinase (JH1) domain of human JAK3 (Homo sapiens, UniProt P52333); experiment: ADP-Glo kinase assay, JAK3 kinase domain
T4 construct: Catalytic activities of recombinant JAK2, JAK3 and TYK2 kinase domain
T4 sequence (P52333 822-1111 limits assumed): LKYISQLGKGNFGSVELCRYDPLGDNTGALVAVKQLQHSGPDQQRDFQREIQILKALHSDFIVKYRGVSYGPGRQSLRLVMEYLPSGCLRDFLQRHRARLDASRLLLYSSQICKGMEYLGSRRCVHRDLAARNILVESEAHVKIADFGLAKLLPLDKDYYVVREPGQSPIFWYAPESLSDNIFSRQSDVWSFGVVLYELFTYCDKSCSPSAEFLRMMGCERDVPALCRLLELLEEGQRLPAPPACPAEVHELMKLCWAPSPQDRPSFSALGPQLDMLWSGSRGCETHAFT

T1 sequence (O60674 849-1124 limits assumed): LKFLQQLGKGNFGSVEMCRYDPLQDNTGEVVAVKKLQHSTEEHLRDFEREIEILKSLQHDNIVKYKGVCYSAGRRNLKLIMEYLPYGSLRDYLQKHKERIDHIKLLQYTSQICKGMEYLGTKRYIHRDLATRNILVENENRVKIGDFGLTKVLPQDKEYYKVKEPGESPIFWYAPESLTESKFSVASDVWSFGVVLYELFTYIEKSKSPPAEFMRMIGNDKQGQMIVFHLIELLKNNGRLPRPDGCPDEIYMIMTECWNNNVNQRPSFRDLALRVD

Q: How did the IC50 [1] turn out when Cn1cc(-c2cc3c(N4CC5CCC(C4)N5[C@@H]4C[C@H](C#N)C4(C)C)ccnn3c2)cn1 (single isomer, unassigned) [Example 48] was run?
A: Its IC50 is 180 nM.

Q: And the IC50 [2]?
A: Its IC50 is 925 nM.

Q: What about the IC50 [3] of the same compound?
A: The IC50 was 35 nM.

Q: And the IC50 [4]?
A: The IC50 was 1350 nM.
